Assay results from patent publication US20190358201A1 (NantCell, Inc., priority 2018, published 2019).

Columns and labels:
[1] = LVEF changes, Phase 2 study (INNO-206-P2-STS-01); type: in vivo, human; conditions: for Subjects with LVEF < 50% at any post-baseline cycle / Subjects with a 10% fall in LVEF: Phase 2, doxorubicin median 4 cycles of 75 mg/m^2 (N 40), aldoxorubicin median 6 cycles of 350 mg/m^2 (N 83)
[2] = test system: soft tissue sarcoma; conditions: vs investigator's choice, entire study population; p=0.12, 95% CI 0.64-1.06; cited from earlier work
[3] = Formation of doxorubicinol metabolite and pharmacokinetics after administration; conditions: after administration to patients
[4] = LVEF changes, Phase 3 study (P3-STS-01); type: in vivo, human
[5] = Alopecia induction in patients; type: in vivo, human; conditions: aldoxorubicin administered instead of doxorubicin
[6] = Tolerability of higher total cumulative doses of aldoxorubicin in patients; type: in vivo, human
Method: Based on the results above, the inventors investigated whether even higher total cumulative doses of aldoxorubicin could be tolerated. To that end, patients were administered total cumulative dosages of up to 3,000 mg/m^2, up to 4,000 mg/m^2, up to 5,000 mg/m^2, up to 6,000 mg/m^2, up to 7,000 mg/m^2, up to 8,000 mg/m^2, up to 9,000 mg/m^2, up to 10,000 mg/m^2, up to 11,000 mg/m^2, up to 12,000 mg/m^2, up to 13,000 mg/m^2, up to 14,000 mg/m^2, and even higher. […] As described herein, cardiotoxicity may be monitored by monitoring the level of metabolite doxorubicinol in the cardiac cells. Suitable cumulative dosages of aldoxorubicin include those that will not adversely affect LVEF. As such, LVEF of patients receiving aldoxorubicin will typically be in the range of 55% to 70%. Thus, in some embodiments, the patients may have LVEF of 55%-60%, or 60%-65%, or 65%-70%. Less preferably, aldoxorubicin may be administered to the patient until reaching a slightly lower than normal LVEF, say between 50%-54%, or 45%-50%, or 40%-45%.

[7] = Cardiac function by 2D echocardiogram in patients treated for at least 6 cycles of aldoxorubicin (Phase 1/2 with ifosfamide/mesna and Phase 3 alone); type: in vivo, human
Method: Fifty-two patients enrolled in a Phase 1/2 study of aldoxorubicin and ifosfamide/mesna and a Phase 3 study using aldoxorubicin alone were treated for at least 6 cycles of aldoxorubicin at either 250 mg/m^2 or 350 mg/m^2 per dose i. v. every 3 weeks. Cardiac function using 2D echocardiogram was evaluated at regular intervals every two cycles of aldoxorubicin until end of treatment and every six months after completion of the treatment.
After treatment, the cumulative aldoxorubicin dose for these patients ranged from […] to 7,500 mg/m^2. […] Ventricular ejection fractions ranged from 45-74% baseline, and 50-77% at end of treatment, median being 60% both at the beginning and end of treatment. Therefore, it should be appreciated that aldoxorubicin lacks cardiotoxicity in these patients treated with aldoxorubicin, alone or in combination with ifosfamide/mesna.

[8] = cited from earlier work
[9] = Sensitivity and worst-case sensitivity analysis of PFS, aldoxorubicin vs doxorubicin (ITT population, independent assessment); type: in vivo, human; conditions: for HR (95% CI): stratified Cox regression; for PFS Events: 42 doxorubicin / 84 aldoxorubicin patients
Method: Sensitivity Analysis: To assess the impact of censoring the 8 patients with no baseline imaging at the date of randomization, a sensitivity analysis was conducted where a PFS event was imputed at the date of randomization. This analysis is presented in Table 1 showing the sensitivity analysis of PFS (ITT Population^a).
(§1) PFS is defined as the time from randomization to the date of first objective documentation of disease progression or death (any cause), whichever comes first. CI=Confidence interval; ECOG=Eastern Cooperative Oncology Group; HR=Hazard ratio; PFS=Progression-free survival; PS=Performance status. ^a The ITT Population comprised all randomized patients. ^bP-value is from stratified log-rank test with ECOG PS (0 to 1, 2) and chemotherapy (no prior chemotherapy or prior adjuvant/neoadjuvant chemotherapy) as stratification factors. Hazard ratio and 95% CI are from a Cox regression model stratified by ECOG PS (0 1, 2) and chemotherapy (no prior chemotherapy or prior adjuvant/neoadjuvant chemotherapy).
This analysis is presented in Table 2 (Worst-Case Sensitivity Analysis of PFS (ITT population^a)).
as §1, with “status. ^aThe” for “status. ^a The”, “randomized patients.^b P-value” for “randomized patients. ^bP-value”, “is based on a” for “is from”

[10] = Phase 3, doxorubicin N 47, aldoxorubicin N 213
[11] = sensitivity analysis of PFS, text to Table 1 / FIG. 2
[12] = sensitivity analysis, PFS event imputed at randomization for 8 patients without baseline imaging, ITT, independent assessment
[13] = sensitivity analysis, ITT, independent assessment
[14] = worst-case sensitivity analysis, PFS event imputed at date of censoring, ITT
[15] = worst-case sensitivity analysis, ITT, independent assessment

COc1cccc2c1C(=O)c1c(O)c3c(c(O)c1C2=O)C[C@@](O)(/C(CO)=N/NC(=O)CCCCCN1C(=O)C=CC1=O)C[C@@H]3O[C@H]1C[C@H](N)[C@H](O)[C@H](C)O1 [Aldoxorubicin, (6-maleimidocaproyl) hydrazone derivative of doxorubicin]
Decreases in LVEF (MUGA or echocardiogram) ([1]; Phase 2, aldoxorubicin treatment group): no clinically relevant decreases in LVEF were observed | Subjects with LVEF < 50% at any post-baseline cycle [1]: 0 n (%) | Subjects with a 10% fall in LVEF [1]: 9 (12.2) n (%) | PFS hazard ratio (HR) [2]: 0.81 | Formation of doxorubicinol [3]: no detectable doxorubicinol | Formation of doxorubicinol ([3]; listed as doxorubicin after modification with N-c-maleimidocaproic acid hydrazide): did not lead to significant quantities of doxorubicinol | Cardiotoxicity ([4]; Phase 3, 350 mg/m^2/cycle, up to 40 cycles, as compared to doxorubicin): minimal or no cardiotoxicity | Subjects with LVEF below 50% of any post-baseline visit [4, 10]: 15 (7) n (%) | Subjects with ≥ 20% LVEF decrease from baseline at any post-baseline visit [4, 10]: 9 (4.2) n (%) | Alopecia induction [5]: minimal alopecia induction | Cardiotoxicity ([6]; cumulative dose equivalent to doxorubicin significantly more than 10× 550 mg/m^2): no or substantially reduced cardiotoxicity | Cardiotoxicity ([6]; patients, doxorubicin equivalent doses even beyond 3000 mg/m^2): no cardiotoxicity was observed | Tolerability, cardiotoxicity and/or LVEF ([6]; total cumulative doses of 14,000 mg/m^2): tolerated without any significant effect on cardiotoxicity and/or LVEF | Ventricular ejection fraction, median ([7]; both at the beginning and end of treatment): 60% | Clinical congestive heart failure ([7]; eleven patients with prior doxorubicin, cumulative aldoxorubicin dose 1,000 to 7,500 mg/m^2): no patient developed any sign or symptom of clinical congestive heart failure | Ventricular ejection fraction at end of treatment (range) ([7]; end of treatment, baseline range 45-74%): 50-77% | Cardiac toxicity ([7]; up to doxorubicin equivalent doses of 7,500 mg/m^2, alone or with ifosfamide/mesna): did not find any evidence of cardiac toxicity | Recommended doxorubicin equivalent dose ([8]; Clin Cancer Res 2007, 13(16)): 260 mg/m^2 | Median PFS [9, 11]: 170 days | HR as stated in text ([9]; sensitivity analysis of PFS, aldoxorubicin vs doxorubicin, p=0.032, 95% CI [0.38, 0.95]): 0.60 | HR (95% CI) ([9]; sensitivity analysis of PFS, aldoxorubicin vs doxorubicin): 0.60 (0.38, 0.95) | PFS Events [9, 12]: 52 | Median PFS [9, 13]: 132.0 days | HR (95% CI) ([9]; worst-case sensitivity analysis of PFS, aldoxorubicin vs doxorubicin): 0.63 (0.43, 0.93) | PFS Events [9, 14]: 84 | Median PFS [9, 15]: 88.5 days

COc1cccc2c1C(=O)c1c(O)c3c(c(O)c1C2=O)C[C@@](O)(C(=O)CO)C[C@@H]3O[C@H]1C[C@H](N)[C@H](O)[C@H](C)O1 [Doxorubicin, reference compound]
Subjects with LVEF < 50% at any post-baseline cycle [1]: 3 (8.6) n (%) | Subjects with a 10% fall in LVEF [1]: 10 (29.4) n (%) | Subjects with LVEF below 50% of any post-baseline visit [4, 10]: 9 (19.1) n (%) | Allowable maximum cumulative lifetime dose ([8]; limit set in view of cardiotoxicity): 550 mg/m^2 | Median PFS [9, 11]: 83 days | PFS Events [9, 12]: 29 | Median PFS [9, 13]: 82.0 days | PFS Events [9, 14]: 42 | Median PFS [9, 15]: 48.0 days
